US20180289709A1, “METHODS OF TREATING INFLAMMATION” (priority 2010, published 2018)

Test system: primary mouse lung fibroblasts (MLFs)
Conditions: 1 μM

## CC[C@@H]1C(=O)N(C)c2cnc(Nc3ccc(C(=O)NC4CCN(C)CC4)cc3OC)nc2N1C1CCCC1 [BI 2536]
  viral replication (luciferase activity in reporter cells): elevated replication
